The source of these data is patent US20260021186A1, “Fatty Acid-D-Amino Acid Peptides Conjugates as Anaplerotic Compounds for Use in Treating Propionic Acidemia, Methylmalonic Acidurias, and Energy Metabolic Disorders” (University of Pittsburgh - Of the Commonwealth System of …, priority 2022, published 2026).

Holding throughout (type): cell-based, human
The test system of assay [1] is ETC components (UQCRC2, COXII, NDUFB8) in PA cell line Fb859 and MMA cell line Fb857. Description: Detection of ETC components by western blots. Conditions: FIG. 11; 72 h treatment. Here is the method: FIG. 11 are western blots showing correction in the signals of Complex III subunit Core 2 48-kDa (UQCRC2), Complex IV subunit II 22-kDa (COXII), and Complex I subunit NDUFB8 18-kDa that is most pronounced in the propionic acidemia (PA) cell line Fb859 compared to the methylmalonic aciduria (MMA) cell line Fb857.
Detection of ETC components by western blots: Same as above, media A for control, and media B for untreated and treated cells in T75 flasks. Amounts of compounds were added appropriately directly to cell culture media when the cultures were about 85-90 confluent. The cultures were allowed to grow for 72 h at 37° C./5% CO2, and then harvested. Harvested cell pellets were stored at −80° C. until immune and enzymatic assay and western blot analyses of OXPHOS subunits. One to 1.5 ml media samples were also stored at −80° C. for.
(In general: Immunoblotting shows a protein as a band on a membrane.)

The next assay has as its system PA patient cells, Fb859. In words: Measurement of mitochondrial respiration (Seahorse XF MitoStress test, OCR). Conditions: FIGS. 12A-12D; 30 μM and 90 μM for 72 h. The method, then: Measurement of Mitochondrial Respiration Seahorse: Fb859 cells were grown in regular DMEM media until 85-90% confluency. The cells were harvested and seeded at a concentration of 25,000 cells/80 μl (n=8 replicates) in poly-D lysine coated XFe seahorse 96well plate in regular DMEM media and incubated overnight at 37° C. in a 5% CO2 incubator. Following day, the culture media was replaced in designated wells with the following for 72 h:180 μl of Specialty Media A (seahorse XFDMEM base media+10% fat stripped FBS+Glucose+sodium pyruvate+L-glutamine+0.5 mM carnitine). 180 μl of Specialty Media B (scahorse XFDMEM base media+10% stripped FBS+0.5 mM carnitine and no added glucose, sodium pyruvate or glutamine). 180 μl of Specialty media B containing experimental compounds. After 72 h incubation the Specialty media A & B was replaced in respective designated wells with 180 μL Seahorse XF DMEM base media containing glucose, sodium pyruvate. […] OCR was determined (Seahorse XF MitoStress test). Finally, cells were lysed, and protein content was determined. […]
Measurement of Mitochondrial Respiration: Control Fb826 and Patient Fb859 cells were grown in regular DMEM media without adding extra glutamine until 85-90% confluency. […] Oxygen consumption rate (OCR) was determined (Seahorse XF MitoStress test). Finally, cells were lysed, and protein content was determined. […]

The next assay concerns HEK293 PCCA−/− cells. In words: Propionyl-CoA alternative metabolites excreted in culture media (mass spectrometry). Conditions: 72 hours; relative to untreated cells. Here is the method: FIGS. 14A-14D are graphs showing the quantitation of propionyl-CoA alternative metabolites excreted in the media of FB859 patient and HEK293 PCCA^−/− cultured cells treated with PMA007 or PMA010 for 72 hours: propionylcarnitine (C3-carnitine; FIG. 14A), propionylglycine (C3-glycine; FIG. 14B), hydroxypropionylcarnitine (C3OH-carnitine; FIG. 14C), and hydroxypropionyl glycine (C3OH-glycine, FIG. 14D). Data are presented as percentage to untreated cells. In media of Fb859 cells, the control (Cntl, 0 μM) treatment with glucose and pyruvate, media propionylcarnitine was 0.17 μM, while in the untreated control, which had no glucose or pyruvate, and stripped FBS (no fat) included in the media, propionylcarnitine was 0.433 μM.
Acylcarnitine levels determination: Media from control, Fb826, and treated and untreated patient, Fb859, cells were collected from either the immunohistochemistry cultures or the Seahorse oxygen consumption 96-well plate assays and analyzed for the levels of short chain acylcarnitines plus propionylglycine and hydroxypropionylglycine using a triple quadrupole API4000 mass spectrometer (AB Sciex™, Framingham, MA) equipped with a ExionLC™ 100 HPLC system (Shimadzu Scientific Instruments™, Columbia, MD) as outlined as previously published.

As for `C[C@@H](NC(=O)CCCCC(=O)O)C(=O)N[C@H](Cc1c[nH]cn1)C(=O)O` [PMA010, 6-(((R)-1-(((R)-1-carboxy-2-(1H-imidazol-4-yl)ethyl)amino)-1-oxopropan-2-yl)amino)-6-oxohexanoic acid], the “correction in the signals of UQCRC2, COXII and NDUFB8 (western blot)” value in assay [1] is reported as “better effect compared to PMA007”. Also, the “oxygen consumption parameters compared to individual components D-Serine and D-Histidine” value with PA patient cells, Fb859 is “improved”. For the same compound, in the assay with HEK293 PCCA−/− cells, the “reduction in hydroxypropionyl glycine in media” value is 80%, the “reduction in propionylcarnitine in media” value was 59% and the “reduction in propionylglycine in media” value was found to be 41%.
